Measured values published in patent US11766447B2, “3′3′-cyclic dinucleotide analogue comprising a cyclopentanyl modified nucleotide as sting modulator” (INSTITUTE OF ORGANIC CHEMISTRY AND BIOCHEMISTRY ASCR, V.V.I., priority 2019, dated 2023).

Tests used:
[1] = molecular target: T1, AQ STING (G230A-R293Q) (Homo sapiens, UniProt Q86WV6, G230A/H232R/R293Q); assay: Differential scanning fluorimetry (DSF) with AQ STING; format: binding; details: thermal shift vs apoprotein; 150 μM CDN; truncated human AQ STING 0.1 mg/ml
T1 construct: 8xHis (N, cleaved yes); SUMO (N, cleaved yes); made in house; host or cells: E. coli Rosetta-gami B (DE3)
Procedure: (§1) Purified PCR products were cleaved with restriction enzymes BamHI (cat. #R0136S, NEB, Ipswich, USA) and NotI (cat. #R0189S, NEB, Ipswich, USA) and cloned into the pSUMO vector linearized with the identical enzymes.
(§2) DNase I (cat. #D5025, Sigma Aldrich, Czech Republic) and RNase A (cat. #R6513, Sigma Aldrich, Czech Republic) were added (final concentration 50 μg/ml) together with MgCl2 (final concentration 5 mmol·l^−1) to the homogenate and bacteria were lysed using French Press G-M™ High-Pressure Cell Press Homogenizer (1500 psi, 3 cycles). […] The resin was poured into a chromatography column, washed with 50 ml buffer A (50 mmol·l^−1 TrisCl (pH 8.0), 800 mmol·l^−1 NaCl, 3 mmol·l^−1 β-mercaptoethanol; 10% glycerol; 20 mmol·l^−1 imidazol) and 8-His-SUMO tagged STING proteins were eluted with 15 ml buffer A containing 300 mmol·l^−1 imidazole. […] Proteins were concentrated with Amicon® Ultra-15 10 K device (cat. #UFC901008, Merck Millipore, Billerica, USA) and flash frozen in liquid N2.
(§3) 20 μL solutions of the reaction mixtures were pipetted in triplicates into 96 well optical reaction plates and thermal denaturation of samples were performed on real time PCR cycler (LightCycler® 480 Instrument II—Roche, Basel, Switzerland). The first derivative of the thermal denaturation curves was performed to calculate denaturing temperatures of STING-CDN complexes and STING apoproteins. The thermal shift for each CDN was calculated by subtracting the average denaturing temperature of STING apoprotein from the average denaturing temperature of STING CDN complex.

[2] = molecular target: T2, WT STING (Homo sapiens, UniProt Q86WV6, H232R); assay: Digitonin assay using 293T wtSTING-FL reporter cells; format: cell-based; design: host or cells: 293T (ATCC CRL-3216), stably transfected, with 4xISRE firefly luciferase reporter; details: 293T wtSTING-FL cells, ISRE firefly luciferase; compounds in Digitonin buffer 30 minutes, then 5 hours; 8-point curve
From the text: Two complementary oligonucleotides of the sequence […] […] […] […] […] The oligonucleotides were mixed in equal molar amounts, hybridized, and cleaved by restriction endonucleases HindIII (cat. #. R0104S, NEB, Ipswich, USA) and BglII (cat. #R0144S, NEB, Ipswich, USA). Ultimately, they were ligated into plasmid pGL4.27 (cat. #E6651, Promega, Madison, USA) linearized with the same enzymes. As result the sequence with four ISRE sites was placed upstream of the minimum promoter of firefly luciferase reporter gene.
After 5 minutes incubation at room temperature (RT), 250 μL of the mixture was added dropwise to the cells in one well. Cells were incubated 36 hours at 37° C. with 5% CO2, and then detached with 0.05% Trypsin and 0.22 g/L EDTA (both cat. #L0941, Biowest, Riverside, USA).
Transfected cells were seeded onto poly-D-lysine coated six well plates at density 50,000 cells per 1 cm^2 in DMEM medium with high glucose containing 10% heat inactivated FBS, 30 μg/mL blasticidin (cat. #ant-b1-05, InvivoGen, San Diego, USA), 0.06 mg/ml Penicillin G and 0.1 mg/ml Streptomycin Sulfate (both cat. #. L0018, Biowest, Riverside, USA). The medium was replenished every 3-4 days until visible colonies of cells resistant to blasticidin were formed.
Blasticidin resistant cells stably expressing WT STING were further transfected with […] plasmid following the same procedure as described above. […] Homogeneous culture of stably double transfected cells was prepared by limiting dilution of cells in 96 well plates and wells with cells were selected that originated from a single cell.
The medium was removed next day and three fold serial dilutions of compounds in Digitonin buffer containing 50 mmol·l^−1 HEPES (cat. #H3375, Sigma Aldrich, Czech Republic) pH 7.0, 100 mmol·l^−1 KCl, 3 mmol·l^−1 MgCl2, 0.1 mmol·l^−1 DTT (cat. #D0632, Sigma Aldrich, Czech Republic), 85 mmol·l^−1 Sucrose (cat. #S7903, Sigma Aldrich, Czech Republic), 0.2% BSA (cat. #A2153, Sigma Aldrich, Czech Republic), 1 mmol·l^−1 ATP (cat. #A1852, Sigma Aldrich, Czech Republic), 0.1 mmol·l^−1 GTP (cat. #G8877, Sigma Aldrich, Czech Republic), and 10 μg/mL Digitonin A (cat. #D141, Sigma Aldrich, Czech Republic) were added to the cells. The buffer was removed after 30 minutes incubation at 37° C. with 5% CO2, the cells were washed once with 100 μl of cultivation medium, and 100 μl of medium was added to each well. The plates with cells were incubated for 5 hours at 37° C. with 5% CO2, 50 μl of the medium was removed and 30 μl of ONE-Glo™ Luciferase Assay System reagent (cat. #E6120, Promega, Madison, USA) was added to each well. Luminescence was read on Synergy H1 (Biotek, Winooski, USA). GraphPad Prism (La Jolla, USA) was used to calculate the 50% effective concentration ([…] from an 8-point dose-response curve.
Target sequence in this assay (Q86WV6 whole entry H232R): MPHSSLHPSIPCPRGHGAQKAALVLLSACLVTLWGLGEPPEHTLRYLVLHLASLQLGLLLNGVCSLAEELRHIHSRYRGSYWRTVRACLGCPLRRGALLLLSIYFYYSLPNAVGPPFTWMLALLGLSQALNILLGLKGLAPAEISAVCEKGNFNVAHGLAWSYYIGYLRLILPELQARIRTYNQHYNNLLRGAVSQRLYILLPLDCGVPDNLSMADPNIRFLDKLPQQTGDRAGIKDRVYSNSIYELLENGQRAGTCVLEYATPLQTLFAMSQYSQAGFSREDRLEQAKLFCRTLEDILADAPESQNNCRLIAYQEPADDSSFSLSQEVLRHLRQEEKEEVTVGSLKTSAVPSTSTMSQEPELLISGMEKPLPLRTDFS

[3] = molecular target: T2, WT STING; assay: Differential scanning fluorimetry (DSF) with WT STING; format: binding; design: 8xHis (N, cleaved yes); SUMO (N, cleaved yes); made in house; host or cells: E. coli Rosetta-gami B (DE3); details: thermal shift vs apoprotein; 150 μM CDN; truncated human WT STING 0.1 mg/ml
Procedure: as §1, §2, §3
Target sequence in this assay (Q86WV6 140-343 H232R): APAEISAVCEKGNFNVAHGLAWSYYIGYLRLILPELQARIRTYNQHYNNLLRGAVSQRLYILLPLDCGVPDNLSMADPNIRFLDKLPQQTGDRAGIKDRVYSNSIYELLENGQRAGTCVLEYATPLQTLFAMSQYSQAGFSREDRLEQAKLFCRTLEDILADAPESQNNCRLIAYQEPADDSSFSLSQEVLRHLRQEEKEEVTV

T1 sequence (Q86WV6 140-343 G230A/H232R/R293Q): as the sequence (Q86WV6 140-343 H232R) above, with G91A, R154Q counted along it

| ΔTm at 150 µM [1] | EC50 [2] | ΔTm at 150 µM [3] | DSF ΔTm (° C.) AQ STING [1] | DSF ΔTm (° C.) WT STING [3] | Compound |
| --- | --- | --- | --- | --- | --- |
| 19.9 °C | 8 nM | 12.9 °C | – | – | Nc1nc2c(ncn2[C@@H]2O[C@@H]3COP(=O)(S)O[C@@H]4[C@@H](COP(=O)(S)O[C@H]3[C@H]2F)C[C@@H](n2cnc3c(N)ncnc32)[C@@H]4F)c(=O)[nH]1 (single isomer, unassigned) [Compound 132a] |
| – | 3000 nM | – | 3.9 °C | 0.3 °C | Nc1ncnc2c1ncn2[C@@H]1C[C@@H]2COP(=O)(O)OC3C(F)[C@H](n4cnc5c(N)ncnc54)O[C@@H]3COP(=O)(S)OC2C1F (single isomer, unassigned) [Compound 141a] |
| – | 50 nM | – | 11.6 °C | 5.3 °C | Nc1ncnc2c1ncn2[C@@H]1C[C@@H]2COP(=O)(O)OC3C(F)[C@H](n4cnc5c(N)ncnc54)O[C@@H]3COP(=O)(S)OC2C1F (single isomer, unassigned) [Compound 141b] |
| – | 300 nM | – | 9.3 °C | 2.6 °C | Nc1ncnc2c1ncn2[C@@H]1O[C@@H]2COP(=O)(O)O[C@H]3[C@@H](O)[C@H](n4cnc5c(N)ncnc54)O[C@@H]3COP(=O)(O)O[C@H]2[C@H]1O [3′3′c-di-AMP, reference compound] |
| – | 5800 nM | – | 7.7 °C | 2.6 °C | Nc1nc2c(ncn2[C@@H]2O[C@@H]3COP(=O)(O)O[C@H]4[C@@H](O)[C@H](n5cnc6c(=O)[nH]c(N)nc65)O[C@@H]4COP(=O)(O)O[C@H]3[C@H]2O)c(=O)[nH]1 [3′3′c-di-GMP, reference compound] |
| – | 800 nM | – | 11.3 °C | 3.6 °C | Nc1nc2c(ncn2[C@@H]2C[C@@H]3COP(=O)(O)O[C@H]4[C@@H](O)[C@H](n5cnc6c(N)ncnc65)O[C@@H]4COP(=O)(O)O[C@H]3[C@H]2O)c(=O)[nH]1 [Compound 101, 2-amino-9-((2R,3R,3aS,7aR,9R,10S,10aR,14aR)-2-(6-amino-9H-purin-9-yl)-3,5,10,12-tetrahydroxy-5,12-dioxidodecahydro-2H-cyclopenta[d]furo[3,2-j][1,3,7,9]tetraoxa[2,8]diphosphacyclo-dodecin-9-yl)-1,9-dihydro-6H-purin-6-one] |
| 11.4 °C | 200 nM | 3.4 °C | – | – | Nc1ncnc2c1ncn2[C@@H]1O[C@@H]2COP(=O)(O)OC3C(O)[C@H](n4cnc5c(=O)[nH]cnc54)C[C@@H]3COP(=O)(O)OC2C1O (stereo partly drawn) [Compound 104, 9-((2R,3R,3a5,7aR,9R,10S,10aR,14aR)-2-(6-amino-9H-purin-9-yl)-3,5,10,12-tetrahydroxy-5,12-dioxidodecahydro-2H-cyclopenta[d]furo[3,2-j][1,3,7,9]tetraoxa[2,8]diphosphacyclododecin-9-yl)-1,9-dihydro-6H-purin-6-one] |
| 9 °C | 400 nM | 1.9 °C | – | – | Nc1nc2c(ncn2[C@@H]2C[C@@H]3COP(=O)(O)OC4C[C@H](n5cnc6c(N)ncnc65)O[C@@H]4COP(=O)(O)OC3C2O)c(=O)[nH]1 (stereo partly drawn) [Compound 106, 2-amino-9-((2R,3aS,7aR,9R,10S,10aR,14aR)-2-(6-amino-9H-purin-9-yl)-5,10,12-trihydroxy-5,12-dioxidodecahydro-2H-cyclopenta[d]furo[3,2-j][1,3,7,9]tetraoxa[2,8]diphosphacyclododecin-9-yl)-1,9-dihydro-6H-purin-6-one] |
| 16.7 °C | 10 nM | 7.6 °C | – | – | Nc1ncnc2c1ncn2[C@@H]1O[C@@H]2COP(=O)(O)OC3C(O)[C@H](n4cnc5c(=O)[nH]cnc54)C[C@@H]3COP(=O)(O)OC2C1F (stereo partly drawn) [Compound 107, 9-((2R,3R,3aR,7aR,9R,10S,10aR,14aR)-2-(6-amino-9H-purin-9-yl)-3-fluoro-5,10,12-trihydroxy-5,12-dioxidodecahydro-2H-cyclopenta[d]furo[3,2-j][1,3,7,9]tetraoxa[2,8]diphosphacyclododecin-9-yl)-1,9-dihydro-6H-purin-6-one] |
| 14.3 °C | 40 nM | 5.2 °C | – | – | Nc1nc2c(ncn2[C@@H]2O[C@@H]3COP(=O)(O)OC4C(O)[C@H](n5cnc6c(N)ncnc65)C[C@@H]4COP(=O)(O)OC3C2O)c(=O)[nH]1 (stereo partly drawn) [Compound 108, 2-amino-9-((2R,3R,3aS,7aR,9R,10S,10aR,14aR)-9-(6-amino-9H-purin-9-yl)-3,5,10,12-tetrahydroxy-5,12-dioxidodecahydro-2H-cyclopenta[d]furo[3,2-j][1,3,7,9]tetraox[2,8]diphosphacyclododecin-2-yl)-1,9-dihydro-6H-purin-6-one] |
| 15.7 °C | 50 nM | 5.8 °C | – | – | Nc1nc2c(ncn2[C@H]2CC3OP(=O)(O)OC[C@H]4C[C@@H](n5cnc6c(N)ncnc65)C(O)C4OP(=O)(O)OC[C@H]3O2)c(=O)[nH]1 (stereo partly drawn) [Compound 110, 2-amino-9-((2R,3a5,7aR,9R,10S,10aR,14aR)-9-(6-amino-9H-purin-9-yl)-5,10,12-trihydroxy-5,12-dioxidodecahydro-2H-cyclopenta[d]furo[3,2-j][1,3,7,9]tetraoxa[2,8]diphosphacyclododecin-2-yl)-1,9-dihydro-6H-purin-6-one] |
| – | 120 nM | – | 13.2 °C | 5.2 °C | Nc1nc2c(ncn2[C@@H]2O[C@@H]3COP(=O)(O)OC4C(O)[C@H](n5cnc6c(N)ncnc65)C[C@@H]4COP(=O)(O)OC3C2O)c(=O)[nH]1 (stereo partly drawn) [Compound 112, 2-amino-9-((2R,3S,3aS,7aR,9R,10S,10aR,14aR)-9-(6-amino-9H-purin-9-yl)-3,5,10,12-tetrahydroxy-5,12-dioxidodecahydro-2H-cyclopenta[d]furo[3,2-j][1,3,7,9]tetraoxa[2,8]diphosphacyclododecin-2-yl)-1,9-dihydro-6H-purin-6-one] |
